In the experiment the test system is intratumoral immune cells. Briefly: Single cell transcriptomic profiling of intratumoral immune cells. Conditions: tumors treated with anti-PD-L1 and compound. The format is in vivo, mice. An excerpt: N-arylpyrazole NOD2 agonist enhances intratumoral immune responses in vivo. The anti-tumor mechanism of action of the N-arylpyrazole NOD2 agonist in vivo was then further characterized. Infiltrating leukocytes from tumors treated with anti-PD-L1 and either TT030 or TT030-ent were harvested via cell sorting and subjected to single cell transcriptomic profiling (FIG. 4A and FIG. 8). After assignment of cell clusters using well-defined markers, the overall composition of intratumoral immune cells were examined by comparing the relative proportions of each cell cluster. […] In fact, overall expression of both Ifng and Gzmb were elevated in the TT030 sample compared to the enantiomer control (FIG. 9B), indicating heighted CD8^+ T cell activation and effector function. […] To better characterize changes to downstream signaling caused by TT030, differential gene expression and gene set enrichment analyses were performed.
FIG. 4(A-E). NOD2 agonist TT030 remodels intratumoral immune cell composition and elicits broad inflammatory signaling. A, Uniform manifold approximation and projection (UMAP) reduction of single intratumoral immune cells harvested from α-PD-L1 and TT030- and TT030-ent-treated tumors. B-C, Heatmap and quantification of the relative composition of intratumoral immune cell types divided by clusters. D, Quantification of the number of clusters that were enriched for individual Molecular Signature Database (MSigDB) hallmark gene sets. E, Bubble plot for enrichment of curated REACTOME gene sets involving NF-κB or interleukin 1 across cell clusters. For relative composition, absolute cell counts were analyzed by Pearson's chi-square test for count data with Holm's correction for multiple comparisons; exact P values are given. […] NOD activation assays were analyzed using a one-way ANOVA with Dunnett's multiple comparisons test compared to the DMSO control.
FIG. 9(A-B). […] QQ plots were analyzed using a two-sided Wilcoxon rank-sum test; exact P values are given.

With `CCOC(=O)CC[C@@H](NC(=O)[C@@H](NC(=O)c1c(C)nn(-c2cc[nH]c(=O)c2)c1C)C(C)C)C(=O)OCC` [TT030, Diethyl (3,5-dimethyl-1-(2-oxo-1,2-dihydropyridin-4-yl)-1H-pyrazole-4-carbonyl)-L-valyl-D-glutamate], the “Inflammatory, immune activation and metabolic pathways (IFNα, IFNγ response, NF-κB signaling), gene set enrichment” value is “upregulated”. Moreover, for the setting “vs. TT030-ent”, the “Amount of T cell cluster expressing Cd8a, Ifng, Gzmb and Mki67” value is on record as “significant increase”. The “Overall expression of Ifng and Gzmb” value (vs. enantiomer control) is listed as “elevated”.

Source of the values: patent US20260176300A1, “N-ARYLPYRAZOLE NOD2 AGONISTS AS PROMOTERS OF IMMUNE CHECKPOINT INHIBITOR THERAPY” (THE SCRIPPS RESEARCH INSTITUTE, priority 2022, published 2026).
